From ChEMBL document CHEMBL1649539, “Pharmacokinetics-pharmacodynamics of pyrazinamide in a novel in vitro model of tuberculosis for sterilizing effect: a paradigm for faster assessment of new antituberculosis drugs” (Antimicrob Agents Chemother, 2009) come the findings set out here.

SMILES strings stand for the structures. The source made the active and inactive calls. The rule behind the calls is not given here.

The nature of data set [1]: Absorption rate constant in Mycobacterium tuberculosis H37Rv. Type of data set: ADME.
Data set [2] relates to Mycobacterium tuberculosis. The data set is described as follows: Antimycobacterial activity against Mycobacterium tuberculosis H37Rv isolated from patient with tuberculosis assessed as bacterial load per day at 15 to 30 mg/kg, po after 2.5 to 3 weeks. Type of data set: functional.
Data set [3] in a line: Ratio of AUC (0 to 24 hrs) to MIC associated with 0.5 log10CFU/ml bacterial count in patient infected with Mycobacterium tuberculosis H37Rv. Type of data set: functional.
Data set [4] has as its system Mycobacterium tuberculosis. As to the kind of experiment: Antimycobacterial activity against Mycobacterium tuberculosis H37Rv isolated from patient with tuberculosis at >= 15 mg/kg, po after 14 to 21 days. Type of data set: functional, organism-based. Further details: dose 15 mg/kg.
Data set [5] is described as follows: Ratio of AUC (0 to 24 hrs) to MIC associated with 2 log10CFU/ml bacterial count in patient infected with Mycobacterium tuberculosis H37Rv. Type of data set: functional.
Data set [6] is described as follows: Volume of distribution in Mycobacterium tuberculosis H37Rv. The note with it: in vivo. Type of data set: ADME, organism-based.
Data set [7] in a line: Ratio of AUC (0 to 24 hrs) to MIC associated with 1 log10CFU/ml bacterial count in patient infected with Mycobacterium tuberculosis H37Rv. Type of data set: functional.
Data set [8] in a line: Clearance in Mycobacterium tuberculosis H37Rv. It is filed as ADME.
For data set [9], the system named is Mycobacterium tuberculosis. The data set is described as follows: Antimycobacterial activity against Mycobacterium tuberculosis H37Rv isolated from patient with tuberculosis assessed as bacterial load per day at >= 15 mg/kg, po after 4 days. Type of data set: functional.
Data set [10] can be described thus: Elimination rate constant in Mycobacterium tuberculosis H37Rv. It is filed as ADME.

The term Vd denotes a proportionality between amount in the body and measured concentration, not a real space. A lower Vd goes with confinement near the circulation. For orientation: clearance means a measure of how efficiently the substance is removed, as volume per time. The compound `NC(=O)c1cnccn1` [PYRAZINAMIDE] had a Ka in data set [1] of 3.45 h⁻¹. For the same compound, the values for the log10CFU/ml/day in data set [2] and in data set [9] were 0.09 and 0.05, respectively. Further, the log10CFU/ml in data set [3] was 9.43; in data set [5], 66.67; in data set [7], 20.26. The result in data set [4] was inactive. For the same compound, in data set [6], the Vd amounted to 1.68 L/kg. The compound further gave a clearance in [8] of 1.67 mL/min/kg. The same compound had a k el in data set [10] of 1.67e-05 s⁻¹.
